“Also recorded” adds a separate entry of the source.
Tests used:
HRas^G12V [1] = target: T1, HRas^G12V (Homo sapiens (Human), UniProt P01112, G12V); assay: 19F DLB (ligand-observed 19F NMR) score; format: binding; design: scale not given here
Outline: (§1)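 In the T2-CPMG experiment, echo spacing was 1 ms and total delays ranged over eight values from 1 to 800 ms. Both scores come from 600 MHz NMR of 50 μM HRas G12V mixed with fragment pools at 240 μM each, in phosphate buffer pH 7.4 with NaCl, MgCl2 and TCEP-d16. Ligand-observed 19F spectra were recorded with 1H decoupling, 64 scans and a 5 s relaxation delay.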

HRas^G12V [2] = target: T1, HRas^G12V; assay: 19F T2-CPMG NMR score; format: binding
Outline: as §1

HRas^G12V [3] = target: T1, HRas^G12V; assay: Overall binding/activity in the various assays (NMR consensus binding)
Outline: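 Fragments (240 µM each, pooled) screened against 50 µM HRas^G12V in 25 mM sodium phosphate pH 7.4, 150 mM NaCl, 5 mM MgCl2, 1 mM TCEP-d16 by 1H-decoupled 1D 19F NMR. Hits confirmed by ligand- and protein-observed 1D 1H, STD and T2-CPMG (aggregation check); consensus binding ranked, with 15N HSQC for sites and Kd.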

`CCOC(=O)[C@@H](C)NC(=O)Cc1c[nH]c2cc(F)ccc12` [Compound 10037] was tested, and the “19F DLB Score” value (HRas^G12V [1]) was 1.25, the “19F T2-CPMG Score” value (HRas^G12V [2]) was 4.07 and the “Binding to HRas^G12V (in words)” value (HRas^G12V [3]) was “low or no binding”.
In the case of `O=C(O)CC(c1ccccc1F)c1c[nH]c2cc(F)ccc12` (stereo not drawn) [Compound 11043], the “19F DLB Score” value (HRas^G12V [1]) is reported as 3.27, the “19F T2-CPMG Score” value (HRas^G12V [2]) is reported as 20.23 and the “Activity ranking on HRas^G12V (in words)” value (HRas^G12V [3]) is reported as “More active”.
In the case of `CN1CCN(C(=O)Cc2c[nH]c3cc(F)ccc23)C[C@@H]1C(=O)O` [Compound 10166, (R)-4-(2-(6-fluoro-1H-indol-3-yl)acetyl)-1-methylpiperazine-2-carboxylic Acid], the “19F DLB Score” value (HRas^G12V [1]) is reported as 1.55, the “19F T2-CPMG Score” value (HRas^G12V [2]) is reported as 7.19 and the “Binding to HRas^G12V (in words)” value (HRas^G12V [3]) is reported as “low or no binding”.
In the case of `C[C@H](NC(=O)Cc1c[nH]c2cc(F)ccc12)C(=O)O` [Compound 10084], the “19F DLB Score” value (HRas^G12V [1]) is reported as 1.09, the “19F T2-CPMG Score” value (HRas^G12V [2]) is reported as 1.7 and the “Binding to HRas^G12V (in words)” value (HRas^G12V [3]) is reported as “low or no binding”.
With `CCOC(=O)C(CC(N)=O)NC(=O)Cc1c[nH]c2cc(F)ccc12` (stereo not drawn) [Compound 10101] the “19F DLB Score” value (HRas^G12V [1]) was 1.12, the “19F T2-CPMG Score” value (HRas^G12V [2]) was 1.74 and the “Binding to HRas^G12V (in words)” value (HRas^G12V [3]) was “low or no binding”.
In the case of `CC(=O)NC[C@H]1CN(C(=O)Cc2c[nH]c3cc(F)ccc23)CCO1` [Compound 10162, (S)—N-((4-(2-(6-fluoro-1H-indol-3-yl)acetyl)morpholin-2-yl)methyl) acetamide], the “19F DLB Score” value (HRas^G12V [1]) is reported as 1.65, the “19F T2-CPMG Score” value (HRas^G12V [2]) is reported as 5.5 and the “Binding to HRas^G12V (in words)” value (HRas^G12V [3]) is reported as “low or no binding”.
For `O=C(c1ccc(F)cc1F)N1CCC(c2c[nH]c3cc(F)ccc23)CC1` [Compound 11026], the “19F DLB Score” value (HRas^G12V [1]) was 2.02, the “19F T2-CPMG Score” value (HRas^G12V [2]) was −1.86 and the “Binding to HRas^G12V (in words)” value (HRas^G12V [3]) was “low or no binding”.
For `O=C(O)CC1CCN(C(=O)Cc2c[nH]c3cc(F)ccc23)CC1` [Compound 10127], the “19F DLB Score” value (HRas^G12V [1]) was 1.3, the “19F T2-CPMG Score” value (HRas^G12V [2]) was 4.35 and the “Binding to HRas^G12V (in words)” value (HRas^G12V [3]) was “low or no binding”.
For `O=C(O)C[C@@H]1CN(C(=O)Cc2c[nH]c3cc(F)ccc23)CCO1` [Compound 10175], the “19F DLB Score” value (HRas^G12V [1]) was 1.19, the “19F T2-CPMG Score” value (HRas^G12V [2]) was 2.15 and the “Binding to HRas^G12V (in words)” value (HRas^G12V [3]) was “low or no binding”.
In the case of `O=C(O)[C@H]1CCCN(C(=O)Cc2c[nH]c3cc(F)ccc23)C1` [Compound 10133, (S)-1-(2-(6-fluoro-1H-indol-3-yl)acetyl)piperidine-3-carboxylic acid], the “19F DLB Score” value (HRas^G12V [1]) is reported as 1.63, the “19F T2-CPMG Score” value (HRas^G12V [2]) is reported as 2.85 and the “Binding to HRas^G12V (in words)” value (HRas^G12V [3]) is reported as “low or no binding”.
With `O=C(O)C[C@@H](c1ccccc1F)c1c[nH]c2cc(F)ccc12` (single isomer, unassigned) [Compound 11053] the “19F DLB Score” value (HRas^G12V [1]) was 2.29, the “19F T2-CPMG Score” value (HRas^G12V [2]) was 25.91 and the “Activity ranking on HRas^G12V (in words)” value (HRas^G12V [3]) was “More active; also recorded: Most active”.
For `Cn1cc(CC(=O)N2CCC2)c2ccc(F)cc21` [Compound 10024, 1-(azetidin-1-yl)-2-(6-fluoro-1-methyl-1H-indol-3-yl) ethan-1-one], the “19F DLB Score” value (HRas^G12V [1]) was 1.06, the “19F T2-CPMG Score” value (HRas^G12V [2]) was 0.01 and the “Binding to HRas^G12V (in words)” value (HRas^G12V [3]) was “low or no binding”.
`COC(=O)C1CN(C(C)C)CCC1NC(=O)Cc1c[nH]c2cc(F)ccc12` (stereo not drawn) [Compound 10141, methyl 4-(2-(6-fluoro-1H-indol-3-yl)acetamido)-1-isopropylpiperidine-3-carboxylate] was tested, and the “19F DLB Score” value (HRas^G12V [1]) was 1.21, the “19F T2-CPMG Score” value (HRas^G12V [2]) was 3.15 and the “Binding to HRas^G12V (in words)” value (HRas^G12V [3]) was “low or no binding”.
`O=C(Cc1ccc(F)cc1)NCCc1c[nH]c2cc(F)ccc12` [Compound 10012] was tested, and the “19F DLB Score” value (HRas^G12V [1]) was 1.32, the “19F T2-CPMG Score” value (HRas^G12V [2]) was 3.96 and the “Binding to HRas^G12V (in words)” value (HRas^G12V [3]) was “low or no binding”.
For `Fc1ccc2c(C3=CCNCC3)c[nH]c2c1` [Compound 11011], the “19F DLB Score” value (HRas^G12V [1]) was 1.52, the “19F T2-CPMG Score” value (HRas^G12V [2]) was 5.22 and the “Binding to HRas^G12V (in words)” value (HRas^G12V [3]) was “low or no binding”.
For `Cc1[nH]c2cc(F)ccc2c1CC(=O)N1CCC1` [Compound 10077, 1-(azetidin-1-yl)-2-(6-fluoro-2-methyl-1H-indol-3-yl)ethan-1-one], the “19F DLB Score” value (HRas^G12V [1]) was 0.96, the “19F T2-CPMG Score” value (HRas^G12V [2]) was 0.41 and the “Binding to HRas^G12V (in words)” value (HRas^G12V [3]) was “low or no binding”.
With `CN(C)CC(=O)Nc1cccc(NC(=O)Cc2c[nH]c3cc(F)cc(Cl)c23)c1` [Compound 11073] the “19F DLB Score” value (HRas^G12V [1]) was “<LLOQ”, the “19F T2-CPMG Score” value (HRas^G12V [2]) was “<LLOQ” and the “Activity ranking on HRas^G12V (in words)” value (HRas^G12V [3]) was “More active; also recorded: Most active”.
`COC(=O)[C@H]1CN(C)CCN1C(=O)Cc1c[nH]c2cc(F)ccc12` [Compound 10157, Methyl (R)-1-(2-(6-fluoro-1H-indol-3-yl)acetyl)-4-methylpiperazine-2-carboxylate] was tested, and the “19F DLB Score” value (HRas^G12V [1]) was 1.04, the “19F T2-CPMG Score” value (HRas^G12V [2]) was 3.58 and the “Binding to HRas^G12V (in words)” value (HRas^G12V [3]) was “low or no binding”.
With `CC(=O)N1CCC[C@H]1C(=O)NCCc1c[nH]c2cc(F)ccc12` [Compound 10045] the “19F DLB Score” value (HRas^G12V [1]) was 1.1, the “19F T2-CPMG Score” value (HRas^G12V [2]) was 1.13 and the “Binding to HRas^G12V (in words)” value (HRas^G12V [3]) was “low or no binding”.
In the case of `COC(=O)Cc1c[nH]c2cc(F)ccc12` [Compound 11001], the “19F DLB Score” value (HRas^G12V [1]) is reported as 1.76, the “19F T2-CPMG Score” value (HRas^G12V [2]) is reported as 6.77 and the “Binding to HRas^G12V (in words)” value (HRas^G12V [3]) is reported as “low or no binding”.
With `CCOC(=O)[C@@H]1COCCN1C(=O)Cc1c[nH]c2cc(F)ccc12` [Compound 10140, ethyl (S)-4-(2-(6-fluoro-1H-indol-3-yl)acetyl) morpholine-3-carboxylate] the “19F DLB Score” value (HRas^G12V [1]) was 1.49, the “19F T2-CPMG Score” value (HRas^G12V [2]) was 5.98 and the “Binding to HRas^G12V (in words)” value (HRas^G12V [3]) was “low or no binding”.
With `CCOC(=O)C(Cc1c[nH]cn1)NC(=O)Cc1c[nH]c2cc(F)ccc12` (stereo not drawn) [Compound 10104] the “19F DLB Score” value (HRas^G12V [1]) was 1.14, the “19F T2-CPMG Score” value (HRas^G12V [2]) was 2.49 and the “Binding to HRas^G12V (in words)” value (HRas^G12V [3]) was “low or no binding”.
For `CCOC(=O)C[C@@H]1CN(C(=O)Cc2c[nH]c3cc(F)ccc23)CCO1` [Compound 10171], the “19F DLB Score” value (HRas^G12V [1]) was 1.19, the “19F T2-CPMG Score” value (HRas^G12V [2]) was 7.62 and the “Binding to HRas^G12V (in words)” value (HRas^G12V [3]) was “low or no binding”.
With `CC(=O)N[C@@H]1CCCN(C(=O)Cc2c[nH]c3cc(F)ccc23)C1` [compound 10137] the “19F DLB Score” value (HRas^G12V [1]) was 2.02, the “19F T2-CPMG Score” value (HRas^G12V [2]) was 6.16 and the “Binding to HRas^G12V (in words)” value (HRas^G12V [3]) was “low or no binding”.
For `CC1CN(C(=O)Cc2cc3cc[nH]c3cc2F)C1` [Compound 10176, 2-(6-fluoro-1H-indol-5-yl)-1-(3-methylazetidin-1-yl) ethan-1-one], the “19F DLB Score” value (HRas^G12V [1]) was 1.01, the “19F T2-CPMG Score” value (HRas^G12V [2]) was 0.19 and the “Binding to HRas^G12V (in words)” value (HRas^G12V [3]) was “low or no binding”.
In the case of `CC(C)(CNC(=O)Cc1c[nH]c2cc(F)ccc12)C(=O)O` [Compound 10062], the “19F DLB Score” value (HRas^G12V [1]) is reported as 1.07, the “19F T2-CPMG Score” value (HRas^G12V [2]) is reported as 1.59 and the “Binding to HRas^G12V (in words)” value (HRas^G12V [3]) is reported as “low or no binding”.
In the case of `CCOC(=O)C(Cc1ccccc1)NC(=O)Cc1c[nH]c2cc(F)ccc12` (stereo not drawn) [Compound 10096], the “19F DLB Score” value (HRas^G12V [1]) is reported as 1.14, the “19F T2-CPMG Score” value (HRas^G12V [2]) is reported as 2.11 and the “Binding to HRas^G12V (in words)” value (HRas^G12V [3]) is reported as “low or no binding”.
`CC(C)(C(=O)N1CCC1)c1c[nH]c2cc(F)ccc12` [Compound 10049, 1-(azetidin-1-yl)-2-(6-fluoro-1H-indol-3-yl)-2-methylpropan-1-one] was tested, and the “19F DLB Score” value (HRas^G12V [1]) was 1.43, the “19F T2-CPMG Score” value (HRas^G12V [2]) was 3.53 and the “Binding to HRas^G12V (in words)” value (HRas^G12V [3]) was “low or no binding”.
With `CC(C)(C)OC(=O)n1cc(CC#N)c2ccc(F)cc21` [Compound 11013] the “19F DLB Score” value (HRas^G12V [1]) was 0.4, the “19F T2-CPMG Score” value (HRas^G12V [2]) was 1.74 and the “Binding to HRas^G12V (in words)” value (HRas^G12V [3]) was “low or no binding”.
With `CN1CCC(NC(=O)Cc2c[nH]c3cc(F)ccc23)C(C(=O)O)C1` (stereo not drawn) [Compound 10119, 4-(2-(6-fluoro-1H-indol-3-yl)acetamido)-1-methylpiperidine-3-carboxylic acid] the “19F DLB Score” value (HRas^G12V [1]) was 0.87, the “19F T2-CPMG Score” value (HRas^G12V [2]) was −0.46 and the “Binding to HRas^G12V (in words)” value (HRas^G12V [3]) was “low or no binding”.

— patent publication US20240408064A1, “RAS INHIBITORS, COMPOSITIONS AND METHODS OF USE THEREOF” (GENETOLEAD INC., priority 2021, published 2024)
